Results reported in ChEMBL document CHEMBL3045932 (J Pestic Sci, 2005).
Blank lines part the entries; values can stand above or below the molecule they belong to. Activity calls are given as the source filed them. No cut-off for these calls is given here.

Experiments:
Echinochloa oryzicola [1] = assay: Herbicidal activity against 2.5-leaf stage of Echinochloa oryzicola assessed as growth inhibition at 2.5 g/a by greenhouse test in presence of fenitrothion; format: functional, organism-based
Oryza sativa [2] = assay: Toxicity in Oryza sativa (rice) assessed as shoot length after 7 days by hydroponics test; format: organism-based; settings: 168 h, read-out: I50
Echinochloa oryzicola [3] = assay: Herbicidal activity against 2.5-leaf stage of Echinochloa oryzicola assessed as growth inhibition at 2.5 g/a by greenhouse test in presence of triphenyl phosphate; format: functional, organism-based
Echinochloa oryzicola [4] = assay: Herbicidal activity against Echinochloa oryzicola assessed as shoot length after 7 days by hydroponics test; format: functional, organism-based; settings: 168 h, read-out: I50
Oryza sativa [5] = assay: Drug metabolism in 2.5-leaf stage Oryza sativa (rice) assessed as 1-[1-(3,5-dichlorophenyl)-1-methylethyl]-4-methyl-3-phenyl-3-pyrrolin-2-one level per gram of fresh weight at 25 nM after 6 days; format: ADME, organism-based; settings: in vivo, 144 h, 0.025 µM
[6] = Drug metabolism assessed as formation of 1-[1-(3,5-dichlorophenyl)-1-methylethyl]-4-methyl-3-phenyl-3-pyrrolin-2-one in presence of porcine esterase and 1 uM triphenyl phosphate; format: physicochemical; settings: pig, isolated protein
[7] = Drug metabolism assessed as parent compound level in presence of porcine esterase and 10 uM of triphenyl phosphate; format: physicochemical; settings: pig, isolated protein
Oryza sativa [8] = assay: Toxicity in zero transplanted Oryza sativa (rice) assessed as growth inhibition at 5 to 10 g/a by greenhouse test in presence of triphenyl phosphate; format: organism-based; settings: in vivo
[9] = Drug metabolism assessed as formation of 1-[1-(3,5-dichlorophenyl)-1-methylethyl]-4-methyl-3-phenyl-3-pyrrolin-2-one in presence of porcine esterase; format: physicochemical; settings: pig, isolated protein
Oryza sativa [10] = assay: Toxicity in 2 cm transplanted Oryza sativa (rice) assessed as growth inhibition at 10 g/a by greenhouse test; format: organism-based; settings: in vivo
Echinochloa oryzicola [11] = assay: Herbicidal activity against Echinochloa oryzicola assessed as shoot length after 7 days by hydroponics test in presence of triphenyl phosphate; format: functional, organism-based
Echinochloa oryzicola [12] = assay: Herbicidal activity against Echinochloa oryzicola assessed as shoot length after 7 days by hydroponics test in presence of tributylphosphate; format: functional, organism-based
Echinochloa oryzicola [13] = assay: Herbicidal activity against 2.5-leaf stage of Echinochloa oryzicola assessed as growth inhibition at 2.5 g/a by greenhouse test; format: functional; settings: read-out: GI
Oryza sativa [14] = assay: Toxicity in zero transplanted Oryza sativa (rice) assessed as growth inhibition at 5 to 10 g/a by greenhouse test in presence of fenitrothion; format: organism-based; settings: in vivo
[15] = Drug metabolism assessed as parent compound level in presence of porcine esterase; format: physicochemical; settings: pig, isolated protein
Echinochloa oryzicola [16] = assay: Herbicidal activity against Echinochloa oryzicola assessed as shoot length after 7 days by hydroponics test in presence of 1-aminobenzotriazole; format: functional, organism-based
Echinochloa oryzicola [17] = assay: Drug metabolism in 2.5-leaf stage Echinochloa oryzicola assessed as 1-[1-(3,5-dichlorophenyl)-1-methylethyl]-4-methyl-3-phenyl-3-pyrrolin-2-one level per gram of fresh weight at 25 nM after 6 days; format: ADME, organism-based; settings: in vivo, 144 h, 0.025 µM
[18] = Drug metabolism assessed as formation of 1-[1-(3,5-dichlorophenyl)-1-methylethyl]-4-methyl-3-phenyl-3-pyrrolin-2-one in presence of porcine esterase and 10 uM triphenyl phosphate; format: physicochemical; settings: pig, isolated protein
[19] = Drug metabolism assessed as parent compound level in presence of porcine esterase and 1 uM of triphenyl phosphate; format: physicochemical; settings: pig, isolated protein
Oryza sativa [20] = assay: Toxicity in zero transplanted Oryza sativa (rice) assessed as growth inhibition at 5 to 10 g/a by greenhouse test; format: organism-based; settings: in vivo
Echinochloa oryzicola [21] = assay: Herbicidal activity against Echinochloa oryzicola assessed as shoot length after 7 days by hydroponics test in presence of fenitrothion; format: functional, organism-based

SMILES: CC1=C(c2ccccc2)C(=O)N(C(C)(C)c2cc(Cl)cc(Cl)c2)C1
- growth inhibition (GI) (Echinochloa oryzicola [1]): Active
- IC50 (Oryza sativa [2]): 115 nM
- growth inhibition (GI) (Echinochloa oryzicola [3]): Active
- IC50 (Echinochloa oryzicola [4]): 12 nM

- Drug metabolism (Oryza sativa [5]): 0.47 nM
- Drug metabolism [6]: 2.69 µM
- Drug metabolism [7]: 4.26 µM
- Drug metabolism [9]: 3 µM
- Drug metabolism [15]: 1.97 µM
- Drug metabolism (Echinochloa oryzicola [17]): 1.88 nM
- Drug metabolism [18]: 0.66 µM
- Drug metabolism [19]: 2.5 µM
SMILES: COC(=O)C1(c2ccccc2)C(=O)N(C(C)(C)c2cc(Cl)cc(Cl)c2)C=C1C (stereo not given)
- growth inhibition (GI) (Echinochloa oryzicola [1]): inactive
- Activity (Oryza sativa [8]): Non-toxic
- Activity (Oryza sativa [10]): Non-toxic
- IC50 (Oryza sativa [2]): 2630 nM
- Activity (Echinochloa oryzicola [11]): inactive
- Activity (Echinochloa oryzicola [12]): Active
- growth inhibition (GI) (Echinochloa oryzicola [3]): inactive
- inhibition of growth at 250 g/ha (Echinochloa oryzicola [13]): 96%
- Activity (Oryza sativa [14]): Non-toxic
- Activity (Echinochloa oryzicola [16]): Active
- Activity (Oryza sativa [20]): Toxic
- IC50 (Echinochloa oryzicola [4]): 25 nM
- Activity (Echinochloa oryzicola [21]): inactive
